From article PMC5443783, “Prostaglandin E2 glyceryl ester is an endogenous agonist of the nucleotide receptor P2Y6” (Scientific Reports, 2017)
Several values for one entry are separate records, joined by “and”; a condition that tells them apart may be missing. Equal values may be shown once. Entries after “also recorded” stand apart in the source; their conditions may differ.

How the values were obtained:
P2Y6 Y75A = target: T1, P2Y6 Y75A (Homo sapiens, UniProt Q15077, Y75A); assay: IP1 accumulation assay, mutant P2Y6 Y75A; type: cell-based; settings: for IP1 formation at mutant receptor: Fig. 6d
T1 construct: expressed in transfected cells; host or cells: HEK293
Description: (§1) cDNA from H1819 cells was used to amplify and clone the P2RY6 and CNR2 coding sequences. They were double-tagged with an N-terminal HA epitope and a C-terminal FLAG epitope and, for transient transfection, introduced into the mammalian expression vector pcDps[56]. All mutant constructs were generated by a PCR-based site-directed mutagenesis and fragment replacement strategy. For stable transfection, P2RY6 was sub-cloned into the pIRES-eGFP vector (CLONTECH Laboratories, USA). All constructs were verified by sequencing.
(§2) To measure intracellular IP3 the HitHunter® Inositol (1,4,5) Triphosphate Assay (DiscoveRx, USA) was used according to manufacturer′s protocol. HEK293 cells stably transfected with hP2RY6 were seeded in a 384-well Black microtiter plate (15,000 cells/well) (Greiner Bio One, Germany) and incubated with indicated concentrations of UDP and PGE2-G for 20 seconds. Reaction was stopped by adding 5 µl 0.2 N perchloric acid and measurement of IP3 was performed with the Fusion AlphaScreen multilabel reader (PerkinElmer Life Sciences) according to manufacturer′s protocol. To measure IP1, HEK293 cells expressing wildtype and mutant P2Y6 were seeded into 384-well plates (5,000 cells/well) 24 h prior assay. After aspiration of the medium, cells were incubated with indicated concentrations of agonists/antagonist for 1 h. IP1 measurements using the IP-one HTFR® assay kit (Cisbio assays, USA) were performed according to manufacturer′s protocol. The assays were performed with a final concentration of 1% DMSO.

P2Y6 F252A = target: T2, P2Y6 F252A (Homo sapiens, UniProt Q15077, F252A); assay: IP1 accumulation assay, mutant P2Y6 F252A; type: cell-based; settings: for IP1 formation at mutant receptor: Fig. 6d
T2 construct: expressed in transfected cells; host or cells: HEK293
Description: as §1, §2

P2Y6 [1] = target: T3, P2Y6 (Homo sapiens, UniProt Q15077); assay: Functional readouts at P2Y6, summary statements; type: cell-based; settings: for EC50: summary value
P2Y6 [2] = target: T3, P2Y6; assay: Intracellular Ca2+ measurement in HEK293 cells transfected with P2RY6; type: cell-based; parameters: expressed in transfected cells; host or cells: HEK293; settings: for effect on cytosolic Ca2+ levels: HEK293 transiently transfected with P2RY6, concentration-dependent
Protocol: RAW264.7 cells were grown in DMEM supplemented with 10% FBS, A7r5 (rat […]) cells in DMEM with 10% FBS, and A431 (human squamous carcinoma) cells in RPMI supplemented with 10% FBS. All cell lines were grown at 37 °C in a humidified 5% CO2 incubator. For functional assays, receptor constructs were heterologously expressed in human embryonic kidney (HEK293) cells upon transient or stable transfection. Cells were grown in DMEM/F12 supplemented with 10% FBS, 100 units/ml penicillin, and 100 µg/ml streptomycin. For the cAMP-inhibition assay, ERK1/2 phosphorylation assay, and Ca^2+ mobilization assay, cells were split into 96-well plates (2.0 × 10^4 cells/well) and transfected with 250 ng vector construct using MACSfectin™ (Miltenyi Biotec, Germany) according to manufacturer’s protocol. Empty vector (mock) served as the negative control. For siRNA experiments, cells were seeded in 6-well plates (4.0 × 10^5 and 6.0 × 10^5 cells/well for RAW264.7 and H1819, respectively). RAW264.7 and H1819 cells were transfected with 150 pMol of mP2RY6 siRNA and hP2RY6 siRNA (Santa Cruz Biotechnology, USA), respectively, using Viromer® Blue (Lipocalyx, Germany). As a negative control, control siRNA-A (Santa Cruz Biotechnology, USA) was used. FITC-labelled siRNA served as a transfection control.
To generate a cell line stably expressing P2Y6, HEK293 cells were seeded in 6-well plates (7.5 × 10^5 cells/well) and transfected with 3 µg vector using MACSfectin™ as transfection regent according to the manufacturer’s protocol. The pIRES-eGFP vector served as negative control. Stably transfected HEK293 cells were cultured in the presence of geneticin (500 µg/ml) for selection.
(§3) For fluorometric measurements of intracellular Ca^2+ levels with the FlexStationII instrument (Molecular Devices), RAW264.7 and H1819 cells were seeded into 96-well plates (3.0 × 10^4 cells/well) 24 h prior to assay. Ca^2+ measurements with transiently transfected HEK293 cells were performed 48 h after transfection. Cells were loaded with 200 µl Calcium 5 reagent (Explorer Kit, Molecular Devices, USA) for 60 min at 37 °C, and the assay was performed as described. Agonists and inhibitors were solved in DMSO (100x) and diluted […] in 96-well compound plates containing HBSS. 50 µl of compound solution were added to the assay plate resulting in final concentration of 1% DMSO. Fold-response was calculated by RFUmax − RFUmin (ligand)/RFUmax − RFUmin (vehicle). EC50 values were calculated by using GraphPad Prism6 software (GraphPad, USA).

P2Y6 Y262 to alanine = target: T4, P2Y6 Y262 to alanine (Homo sapiens, UniProt Q15077, Y262A); assay: IP1 accumulation assay, mutant P2Y6 Y262A; type: cell-based; settings: Fig. 6d
T4 construct: expressed in transfected cells; host or cells: HEK293
Description: as §1
as §2, with “IP1 measurements using the IP-one HTFR® assay kit (Cisbio assays, USA) were performed according to manufacturer′s protocol. The assays were performed with a final concentration of 1% DMSO.” left out

HEK293 cells = assay: Intracellular Ca2+ measurement in non-transfected HEK293 cells; type: cell-based, human; settings: for effect on intracellular Ca2+: non-transfected HEK293 cells
Protocol: as §3

P2Y6 [3] = target: T3, P2Y6; assay: Agonist-induced receptor internalization, cell surface ELISA; type: cell-based; parameters: expressed in transfected cells; host or cells: HEK293; settings: HEK293 transiently transfected with hP2RY6, time-dependent, Fig. 5e
Protocol: (§4) To estimate cell surface expression of heterologously expressed receptors carrying an N-terminal HA tag, an indirect cellular ELISA was used[57]. To determine the endogenous cell surface expression of P2Y6, the same ELISA procedure was performed with minor modifications. Briefly, after 4% paraformaldehyde fixation and blocking with 10% FBS, cells were incubated with the primary anti-P2Y6 antibody (sc-15215; Santa Cruz Biotechnology, USA) in 1:1,000 dilution for 1 h. After washing with PBS, cells were incubated with peroxidase-conjugated secondary antibody anti-goat IgG (sc-2020, Santa Cruz Biotechnology, USA) in 1:5,000 dilutions.

[4] = target: T5, human TSH receptor (TSHR) (Homo sapiens, UniProt P16473); assay: Cell surface expression of TSH receptor, cell surface ELISA; type: cell-based; settings: HEK293 transfected with HA-tagged human TSHR, Fig. 5e
T5 construct: HA tag (N); expressed in transfected cells; host or cells: HEK293
Protocol: as §4

RAW264.7 cells = assay: Intracellular Ca2+ measurement in RAW264.7 cells; type: cell-based, mouse
Protocol: as §3

H1819 cells = assay: Intracellular Ca2+ measurement in H1819 cells; type: cell-based, human
Protocol: as §3

[5] = HEK293 transiently transfected with P2RY6, Fig. 2b, read-out: EC50, intracellular Ca2+
[6] = Fig. 1d, read-out: EC50, intracellular Ca2+ release

T1 sequence (Q15077 whole entry Y75A): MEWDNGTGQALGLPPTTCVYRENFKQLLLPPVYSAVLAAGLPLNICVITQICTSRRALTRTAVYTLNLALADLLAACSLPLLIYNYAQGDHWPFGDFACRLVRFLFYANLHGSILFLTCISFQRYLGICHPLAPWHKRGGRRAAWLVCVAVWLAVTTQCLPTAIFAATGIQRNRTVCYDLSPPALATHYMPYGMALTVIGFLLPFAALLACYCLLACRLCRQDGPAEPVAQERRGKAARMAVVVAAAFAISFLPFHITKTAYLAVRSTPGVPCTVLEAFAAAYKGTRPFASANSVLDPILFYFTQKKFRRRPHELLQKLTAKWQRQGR
T2 sequence (Q15077 whole entry F252A): as the sequence (Q15077 whole entry Y75A) above, with A75Y, F252A counted along it
T3 sequence (Q15077 whole entry): as the sequence (Q15077 whole entry Y75A) above, with A75Y counted along it
T5 sequence (P16473 21-764): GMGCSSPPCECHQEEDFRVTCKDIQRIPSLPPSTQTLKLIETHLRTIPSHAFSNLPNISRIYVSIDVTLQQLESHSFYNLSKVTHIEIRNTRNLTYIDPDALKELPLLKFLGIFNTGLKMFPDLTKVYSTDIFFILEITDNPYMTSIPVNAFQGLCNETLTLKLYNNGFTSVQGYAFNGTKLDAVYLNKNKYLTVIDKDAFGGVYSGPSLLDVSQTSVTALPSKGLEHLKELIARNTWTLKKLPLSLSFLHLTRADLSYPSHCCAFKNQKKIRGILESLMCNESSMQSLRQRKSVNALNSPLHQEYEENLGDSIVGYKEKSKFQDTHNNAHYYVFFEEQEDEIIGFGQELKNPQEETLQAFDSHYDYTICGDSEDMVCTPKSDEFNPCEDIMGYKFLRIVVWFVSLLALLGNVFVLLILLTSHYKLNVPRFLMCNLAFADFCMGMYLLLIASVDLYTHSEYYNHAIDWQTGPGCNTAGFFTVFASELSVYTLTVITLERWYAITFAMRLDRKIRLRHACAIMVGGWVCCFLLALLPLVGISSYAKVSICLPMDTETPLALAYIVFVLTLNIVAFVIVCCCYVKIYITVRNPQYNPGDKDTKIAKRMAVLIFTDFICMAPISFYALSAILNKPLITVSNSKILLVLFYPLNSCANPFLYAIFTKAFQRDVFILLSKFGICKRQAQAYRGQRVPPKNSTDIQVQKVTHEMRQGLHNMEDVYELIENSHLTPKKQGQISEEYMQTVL
T4 sequence (Q15077 whole entry Y262A): as the sequence (Q15077 whole entry Y75A) above, with A75Y, Y262A counted along it

Row | Compound | EC50 (P2Y6 Y75A; Fig. 6e) | IP1 formation at mutant receptor (P2Y6 Y75A) | EC50 (P2Y6 F252A; Fig. 6e) | IP1 formation at mutant receptor (P2Y6 F252A) | EC50 (P2Y6 [1]) | EC50 (P2Y6 [2]; HEK293 stably transfected with P2RY6, Fig. 5, read-out: EC50, Ca2+ mobilization assay) | EC50 (P2Y6 [2]; [5]) | effect on cytosolic Ca2+ levels (P2Y6 [2]) | IP1 formation at mutant receptor (P2Y6 Y262 to alanine) | effect on intracellular Ca2+ (HEK293 cells) | agonist-induced internalization of P2Y6 (cell surface expression) (P2Y6 [3]) | effect on cell surface expression of the TSH receptor [4] | EC50 (RAW264.7 cells; [6]) | EC50 (H1819 cells; [6]) | Emax values (P2Y6 [1]; most functional assays, Figs 3a–c and 6a) | ratio of EC50 values UDP / PGE2-G (P2Y6 [2]; Ca2+ measurements in transfected HEK cells, Fig. 2b) | Maximum RFU for PGE2-G (HEK293 cells; HEK293 cells, control (1% DMSO) 2,106 ± 1,193) | Maximum RFU for PGE2-G (RAW264.7 cells; control (1% DMSO) 1,560 ± 479) | Maximum RFU for PGE2-G (H1819 cells; control (1% DMSO) 5,247 ± 2,016)
1 | O=c1ccn([C@@H]2O[C@H](COP(=O)(O)OP(=O)(O)O)[C@@H](O)[C@H]2O)c(=O)[nH]1 [UDP] | 15.4 ± 0.9 nM | efficacy remained unchanged | 12.7 ± 2.1 nM | efficacy remained unchanged | ~50 nM | 57.1 ± 2.5 nM | 78.3 ± 6.7 nM | increased the cytosolic Ca^2+ levels | significantly reduced activity | no effect | cell surface expression levels of P2Y6 were reduced; also recorded: induced a time-dependent internalization | no effect | 38.4 ± 1.9 nM | 25.9 ± 2.8 nM | – | – | – | – | –
2 | Prostaglandin E2 glyceryl ester [PGE2-G] | – | loss of PGE2-G-induced IP1 formation | – | loss of PGE2-G-induced IP1 formation | ~0.001 nM | – | ~0.001 nM and 0.0012 nM | increased the cytosolic Ca^2+ levels | fully activated | no effect | cell surface expression levels of P2Y6 were reduced; also recorded: induced a time-dependent internalization | no effect | – | – | slightly lower compared to UDP | ~ 65,000 | 2,193 ± 252 RFU | 3,649 ± 678 RFU | 13,143 ± 2,157 RFU
